In ChEMBL document CHEMBL1201862, “PubChem BioAssay data set” (2004):
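Assay format: 96-well plates, 48-hour exposure. GI50 marks 50% less growth.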 The source made the active and inactive calls. Rule as the data show it: active = GI50 up to about 1.1 µM and inactive = higher.

Key:
Experiment in all cases: growth of human tumour cells (NCI), 48 h
A549 = test system: A549
BT-549 = test system: BT-549
CAKI-1 = test system: CAKI-1
EKVX = test system: EKVX
HCT-116 = test system: HCT-116
Hs-578T = test system: Hs-578T
LOX IMVI = test system: LOX IMVI
MDA-MB-435 = test system: MDA-MB-435
NCI-H460 = test system: NCI-H460
OVCAR-5 = test system: OVCAR-5
OVCAR-8 = test system: OVCAR-8
RPMI-8226 = test system: RPMI-8226
SF-268 = test system: SF-268
SF-539 = test system: SF-539
SK-MEL-28 = test system: SK-MEL-28
SK-MEL-2 = test system: SK-MEL-2
SR = test system: SR
U-251 = test system: U-251
UACC-62 = test system: UACC-62

O=C(C=P(c1ccccc1)(c1ccccc1)c1ccccc1)C12CC3CC(CC(C3)C1)C2
GI50 (A549): 16.7 µM (inactive)
GI50 (BT-549): 18.2 µM (inactive)
GI50 (CAKI-1): 16.1 µM (inactive)
GI50 (EKVX): 15.6 µM (inactive)
GI50 (HCT-116): 13.2 µM (inactive)
GI50 (Hs-578T): 16.5 µM (inactive)
GI50 (LOX IMVI): 16.4 µM (inactive)
GI50 (MDA-MB-435): 12.9 µM (inactive)
GI50 (NCI-H460): 16.4 µM (inactive)
GI50 (OVCAR-5): 17.1 µM (inactive)
GI50 (OVCAR-8): 17.7 µM (inactive)
GI50 (RPMI-8226): 4.06 µM (inactive)
GI50 (SF-268): 20.8 µM (inactive)
GI50 (SF-539): 20 µM (inactive)
GI50 (SK-MEL-28): 16.8 µM (inactive)
GI50 (SK-MEL-2): 15.8 µM (inactive)
GI50 (SR): 55 µM (inactive)
GI50 (U-251): 17.7 µM (inactive)
GI50 (UACC-62): 14.7 µM (inactive)

CCN(CC)CCCNc1c2cc(OC)ccc2nc2cccc([N+](=O)[O-])c12
GI50 (A549): 0.065 µM (active)
GI50 (BT-549): 0.2 µM (active)
GI50 (CAKI-1): 0.21 µM (active)
GI50 (EKVX): 0.163 µM (active)
GI50 (HCT-116): 0.0327 µM (active)
GI50 (Hs-578T): 0.138 µM (active)
GI50 (LOX IMVI): 0.024 µM (active)
GI50 (MDA-MB-435): 0.0995 µM (active)
GI50 (NCI-H460): 0.0184 µM (active)
GI50 (OVCAR-5): 0.0832 µM (active)
GI50 (OVCAR-8): 0.0904 µM (active)
GI50 (RPMI-8226): 0.0535 µM (active)
GI50 (SF-268): 0.0841 µM (active)
GI50 (SF-539): 0.141 µM (active)
GI50 (SK-MEL-28): 0.231 µM (active)
GI50 (SK-MEL-2): 0.101 µM (active)
GI50 (SR): 0.00612 µM (active)
GI50 (U-251): 0.082 µM (active)
GI50 (UACC-62): 0.166 µM (active)

CCCC(=O)Nc1cc(/C=C/C(=O)N2CC(CCl)c3c2cc(O)c2[nH]cc(C)c32)n(C)c1 (stereo not drawn)
GI50 (A549): < 2.5e-05 µM (active)
GI50 (BT-549): < 2.5e-05 µM (active)
GI50 (CAKI-1): < 2.5e-05 µM (active)
GI50 (EKVX): < 2.5e-05 µM (active)
GI50 (HCT-116): < 2.5e-05 µM (active)
GI50 (Hs-578T): < 2.5e-05 µM (active)
GI50 (LOX IMVI): < 2.5e-05 µM (active)
GI50 (MDA-MB-435): < 2.5e-05 µM (active)
GI50 (NCI-H460): < 2.5e-05 µM (active)
GI50 (OVCAR-5): < 2.5e-05 µM (active)
GI50 (OVCAR-8): < 2.5e-05 µM (active)
GI50 (RPMI-8226): 5.49e-05 µM (active)
GI50 (SF-268): < 2.5e-05 µM (active)
GI50 (SF-539): < 2.5e-05 µM (active)
GI50 (SK-MEL-28): < 2.5e-05 µM (active)
GI50 (SK-MEL-2): < 2.5e-05 µM (active)
GI50 (SR): < 2.5e-05 µM (active)
GI50 (U-251): < 2.5e-05 µM (active)
GI50 (UACC-62): < 2.5e-05 µM (active)

CN(C)c1cccc(-c2cc(=S)c3cc4c(cc3[nH]2)OCO4)c1
GI50 (A549): 4.85 µM (inactive)
GI50 (BT-549): > 100 µM (inactive)
GI50 (CAKI-1): 11.1 µM (inactive)
GI50 (EKVX): 7.62 µM (inactive)
GI50 (HCT-116): 5.74 µM (inactive)
GI50 (Hs-578T): 4.28 µM (inactive)
GI50 (LOX IMVI): 7.73 µM (inactive)
GI50 (MDA-MB-435): 1.76 µM (inactive)
GI50 (NCI-H460): 4.59 µM (inactive)
GI50 (OVCAR-5): > 64.9 µM (inactive)
GI50 (OVCAR-8): 6.43 µM (inactive)
GI50 (RPMI-8226): > 21.1 µM (inactive)
GI50 (SF-268): > 61.2 µM (inactive)
GI50 (SF-539): 4.27 µM (inactive)
GI50 (SK-MEL-28): > 100 µM (inactive)
GI50 (SK-MEL-2): 24.4 µM (inactive)
GI50 (SR): 4.95 µM (inactive)
GI50 (U-251): > 20.7 µM (inactive)
GI50 (UACC-62): 6.27 µM (inactive)

COc1ccc(/N=C/C=C/Nc2ccc(OC)cc2)cc1
GI50 (A549): 12.1 µM (inactive)
GI50 (BT-549): 4.18 µM (inactive)
GI50 (CAKI-1): 3.78 µM (inactive)
GI50 (EKVX): 15.7 µM (inactive)
GI50 (HCT-116): 3.66 µM (inactive)
GI50 (Hs-578T): 17.5 µM (inactive)
GI50 (LOX IMVI): 2.44 µM (inactive)
GI50 (MDA-MB-435): 9.27 µM (inactive)
GI50 (NCI-H460): 13.3 µM (inactive)
GI50 (OVCAR-5): 15.5 µM (inactive)
GI50 (OVCAR-8): 3.3 µM (inactive)
GI50 (RPMI-8226): 8.81 µM (inactive)
GI50 (SF-268): 7.43 µM (inactive)
GI50 (SF-539): 9.64 µM (inactive)
GI50 (SK-MEL-28): 15.2 µM (inactive)
GI50 (SK-MEL-2): 16.4 µM (inactive)
GI50 (SR): 3.85 µM (inactive)
GI50 (U-251): 5.35 µM (inactive)
GI50 (UACC-62): 13.7 µM (inactive)

Oc1cc(O)c2c(c1)OC(c1ccc(O)c(O)c1)C(OC1(c3cc(O)c(O)c(O)c3)Oc3cc(O)cc(O)c3C(O)C1O)C2 (stereo not drawn)
GI50 (A549): 27.7 µM (inactive)
GI50 (BT-549): 26.8 µM (inactive)
GI50 (CAKI-1): 29.8 µM (inactive)
GI50 (EKVX): 15.6 µM (inactive)
GI50 (HCT-116): 24.6 µM (inactive)
GI50 (Hs-578T): 36.6 µM (inactive)
GI50 (LOX IMVI): 18.3 µM (inactive)
GI50 (MDA-MB-435): 15.7 µM (inactive)
GI50 (NCI-H460): 18.4 µM (inactive)
GI50 (OVCAR-5): 21.8 µM (inactive)
GI50 (OVCAR-8): 26 µM (inactive)
GI50 (RPMI-8226): 22.1 µM (inactive)
GI50 (SF-268): 25.9 µM (inactive)
GI50 (SF-539): 32.1 µM (inactive)
GI50 (SK-MEL-28): > 40.6 µM (inactive)
GI50 (SK-MEL-2): 24.5 µM (inactive)
GI50 (SR): 29.2 µM (inactive)
GI50 (U-251): 20.8 µM (inactive)
GI50 (UACC-62): 37.6 µM (inactive)

CC/C(Cl)=N\OC(=O)Nc1ccc(F)c(Cl)c1
GI50 (A549): 21.3 µM (inactive)
GI50 (BT-549): 16.6 µM (inactive)
GI50 (CAKI-1): 5.21 µM (inactive)
GI50 (EKVX): 18.2 µM (inactive)
GI50 (HCT-116): 14 µM (inactive)
GI50 (Hs-578T): 39.4 µM (inactive)
GI50 (LOX IMVI): 4.91 µM (inactive)
GI50 (MDA-MB-435): 21.2 µM (inactive)
GI50 (NCI-H460): 17.7 µM (inactive)
GI50 (OVCAR-5): 16.5 µM (inactive)
GI50 (OVCAR-8): 17.7 µM (inactive)
GI50 (RPMI-8226): 3.35 µM (inactive)
GI50 (SF-268): 15.7 µM (inactive)
GI50 (SF-539): 19.8 µM (inactive)
GI50 (SK-MEL-28): 15.6 µM (inactive)
GI50 (SK-MEL-2): 17.3 µM (inactive)
GI50 (SR): 4.99 µM (inactive)
GI50 (U-251): 17.2 µM (inactive)
GI50 (UACC-62): 20.6 µM (inactive)
